This experiment concerns the target LXRβ (Homo sapiens (Human), UniProt P55055). Briefly: In vitro assay LXRβ: PathHunter NHR CHO cells, LXRβ / Steroid Receptor Co-activator Peptide enzyme fragment complementation. The format is cell-based. Particulars: PathHunter NHR CHO cells, full-length human LXRβ and SRCP, chemiluminescent signal; read-out: LXRβ PPI. The method in brief:
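Enzyme fragment complementation read-out: CHO cells stably expressing ProLink-tagged full-length human LXRβ plus nuclear enzyme acceptor–SRCP fusion, seeded and held overnight at 37° C. Medium with charcoal-dextran filtered serum; final vehicle 1%. Chemiluminescence measured after signal generation.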

Among the data in patent US20230340011A1 (Asteroid Therapeutics, priority 2022, published 2023) are EC50 values, retold here.

Sequence of LXRβ (P55055 whole entry, the tested form may be a part): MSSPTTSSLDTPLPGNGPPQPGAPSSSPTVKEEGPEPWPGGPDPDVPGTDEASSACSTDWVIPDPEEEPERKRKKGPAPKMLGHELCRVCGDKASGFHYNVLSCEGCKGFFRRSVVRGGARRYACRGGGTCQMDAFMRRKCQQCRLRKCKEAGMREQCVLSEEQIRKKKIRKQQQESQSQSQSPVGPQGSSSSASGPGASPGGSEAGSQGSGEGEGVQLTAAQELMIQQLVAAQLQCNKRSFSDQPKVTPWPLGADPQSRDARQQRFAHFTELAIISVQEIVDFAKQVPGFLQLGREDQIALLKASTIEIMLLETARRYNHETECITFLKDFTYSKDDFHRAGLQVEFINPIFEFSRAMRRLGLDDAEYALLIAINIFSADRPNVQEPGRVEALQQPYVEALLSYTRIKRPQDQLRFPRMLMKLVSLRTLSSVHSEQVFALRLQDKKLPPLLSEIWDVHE

Take `C[C@H](CCC(=O)N1CCC(Oc2ccncn2)CC1)[C@H]1CC[C@H]2[C@@H]3CC=C4C[C@@H](O)CC[C@]4(C)[C@H]3CC[C@]12C` [Example 221, (4R)-4-[(1R,3aS,3bS,7S,9aR,9bS,11aR)-7-hydroxy-9a,11a-dimethyl-1H,2H,3H,3aH,3bH,4H,6H,7H,8H,9H,9aH,9bH,10H,11H,11aH-cyclopenta[a]phenanthren-1-yl]-1-[4-(pyrimidin-4-yloxy)piperidin-1-yl]pentan-1-one]: the EC50 was 1 to 10 µM. The value for `C[C@H](CCC(=O)N1CCN(c2cncnc2)CC1)[C@H]1CC[C@H]2[C@@H]3CC=C4C[C@@H](O)CC[C@]4(C)[C@H]3CC[C@]12C` [Example 222, (R)-4-((3S,8S,9S,10R,13R,14S,17R)-3-hydroxy-10,13-dimethyl-2,3,4,7,8,9,10,11,12,13,14,15,16,17-tetradecahydro-1H-cyclopenta[a]phenanthren-17-yl)-1-(4-(pyrimidin-5-yl)piperazin-1-yl)pentan-1-one] was more than 10 µM; that for `C[C@H](CCC(=O)N1CCN(Cc2cnn(C)c2)CC1)[C@H]1CC[C@H]2[C@@H]3CC=C4C[C@@H](O)CC[C@]4(C)[C@H]3CC[C@]12C` [Example 223, (R)-4-((3S,8S,9S,10R,13R,14S,17R)-3-hydroxy-10,13-dimethyl-2,3,4,7,8,9,10,11,12,13,14,15,16,17-tetradecahydro-1H-cyclopenta[a]phenanthren-17-yl)-1-(4-((1-methyl-1H-pyrazol-4-yl)methyl)piperazin-1-yl)pentan-1-one] was more than 10 µM; that for `C[C@H](CCC(=O)N1CCN(Cc2cncnc2)CC1)[C@H]1CC[C@H]2[C@@H]3CC=C4C[C@@H](O)CC[C@]4(C)[C@H]3CC[C@]12C` [Example 224, (4R)-4-[(1R,3aS,3bS,7S,9aR,9bS,11aR)-7-hydroxy-9a,11a-dimethyl-1H,2H,3H,3aH,3bH,4H,6H,7H,8H,9H,9aH,9bH,10H,11H,11aH-cyclopenta[a]phenanthren-1-yl]-1-{4-[(pyrimidin-5-yl)methyl]piperazin-1-yl}pentan-1-one] was more than 10 µM. The value for `Cc1nnc(N2CCN(C(=O)CC[C@@H](C)[C@H]3CC[C@H]4[C@@H]5CC=C6C[C@@H](O)CC[C@]6(C)[C@H]5CC[C@]34C)CC2)s1` [Example 225, (R)-4-((3S,8S,9S,10R,13R,14S,17R)-3-hydroxy-10,13-dimethyl-2,3,4,7,8,9,10,11,12,13,14,15,16,17-tetradecahydro-1H-cyclopenta[a]phenanthren-17-yl)-1-(4-(5-methyl-1,3,4-thiadiazol-2-yl)piperazin-1-yl)pentan-1-one] was more than 10 µM; that for `C[C@H](CCC(=O)N1CCN(c2ccnn2C)CC1)[C@H]1CC[C@H]2[C@@H]3CC=C4C[C@@H](O)CC[C@]4(C)[C@H]3CC[C@]12C` [Example 226, (R)-4-((3S,8S,9S,10R,13R,14S,17R)-3-hydroxy-10,13-dimethyl-2,3,4,7,8,9,10,11,12,13,14,15,16,17-tetradecahydro-1H-cyclopenta[a]phenanthren-17-yl)-1-(4-(1-methyl-1H-pyrazol-5-yl)piperazin-1-yl)pentan-1-one] was more than 10 µM. The result for `CC(NC(=O)C(C)(C)O)C1CCN(C(=O)CC[C@@H](C)[C@H]2CC[C@H]3[C@@H]4CC=C5C[C@@H](O)CC[C@]5(C)[C@H]4CC[C@]23C)CC1` (stereo partly drawn) [Example 227, 2-hydroxy-N-(1-(1-((R)-4-((3S,8S,9S,10R,13R,14S,17R)-3-hydroxy-10,13-dimethyl-2,3,4,7,8,9,10,11,12,13,14,15,16,17-tetradecahydro-1H-cyclopenta[a]phenanthren-17-yl)pentanoyl)piperidin-4-yl)ethyl)-2-methylpropanamide] reads more than 10 µM; that for `CC(NS(C)(=O)=O)C1CCN(C(=O)CC[C@@H](C)[C@H]2CC[C@H]3[C@@H]4CC=C5C[C@@H](O)CC[C@]5(C)[C@H]4CC[C@]23C)CC1` (stereo partly drawn) [Example 229, N-(1-(1-((R)-4-((3S,8S,9S,10R,13R,14S,17R)-3-hydroxy-10,13-dimethyl-2,3,4,7,8,9,10,11,12,13,14,15,16,17-tetradecahydro-1H-cyclopenta[a]phenanthren-17-yl)pentanoyl)piperidin-4-yl)ethyl)methanesulfonamide], more than 10 µM; that for `C[C@H](CCC(=O)N1CCC(CN(C)S(C)(=O)=O)CC1)[C@H]1CC[C@H]2[C@@H]3CC=C4C[C@@H](O)CC[C@]4(C)[C@H]3CC[C@]12C` [Example 230, N-((1-((R)-4-((3S,8S,9S,10R,13R,14S,17R)-3-hydroxy-10,13-dimethyl-2,3,4,7,8,9,10,11,12,13,14,15,16,17-tetradecahydro-1H-cyclopenta[a]phenanthren-17-yl)pentanoyl)piperidin-4-yl)methyl)-N-methylmethanesulfonamide], more than 10 µM. On to `C[C@H](CCC(=O)N1CCC(CNS(=O)(=O)C(F)(F)F)CC1)[C@H]1CC[C@H]2[C@@H]3CC=C4C[C@@H](O)CC[C@]4(C)[C@H]3CC[C@]12C` [Example 231, 1,1,1-trifluoro-N-((1-((R)-4-((3S,8S,9S,10R,13R,14S,17R)-3-hydroxy-10,13-dimethyl-2,3,4,7,8,9,10,11,12,13,14,15,16,17-tetradecahydro-1H-cyclopenta[a]phenanthren-17-yl)pentanoyl)piperidin-4-yl)methyl)methanesulfonamide], for which the EC50 is more than 10 µM. The value for `C[C@H](CCC(=O)N1CCC(CNS(C)(=O)=O)CC1)[C@H]1CC[C@H]2[C@@H]3CC=C4C[C@@H](O)CC[C@]4(C)[C@H]3CC[C@]12C` [Example 232, N-((1-((R)-4-((3S,8S,9S,10R,13R,14S,17R)-3-hydroxy-10,13-dimethyl-2,3,4,7,8,9,10,11,12,13,14,15,16,17-tetradecahydro-1H-cyclopenta[a]phenanthren-17-yl)pentanoyl)piperidin-4-yl)methyl)methanesulfonamide] was more than 10 µM. Take `COC(=O)N1CCN(C(=O)OC[C@@H](C)[C@H]2CC[C@H]3[C@@H]4CC=C5C[C@@H](O)CC[C@]5(C)[C@H]4CC[C@]23C)CC1` [Example 238, 1-(2S)-2-[(1R,3aS,3bS,7S,9aR,9bS,11aS)-7-hydroxy-9a,11a-dimethyl-1H,2H,3H,3aH,3bH,4H,6H,7H,8H,9H,9aH,9bH,10H,11H,11aH-cyclopenta[a]phenanthren-1-yl]propyl 4-methyl piperazine-1,4-dicarboxylate]: the EC50 was more than 10 µM.

Consider `C[C@H](CCC(=O)N1CCC(OC(F)(F)F)CC1)[C@H]1CC[C@H]2[C@@H]3CC=C4C[C@@H](O)CC[C@]4(C)[C@H]3CC[C@]12C` [Example 251, (4R)-4-[(1R,3aS,3bS,7S,9aR,9bS,11aR)-7-hydroxy-9a,11a-dimethyl-1H,2H,3H,3aH,3bH,4H,6H,7H,8H,9H,9aH,9bH,10H,11H,11aH-cyclopenta[a]phenanthren-1-yl]-1-[4-(trifluoromethoxy)piperidin-1-yl]pentan-1-one], for which the EC50 was more than 10 µM. With `C[C@H](CCC(=O)N1CCC(OC(F)F)CC1)[C@H]1CC[C@H]2[C@@H]3CC=C4C[C@@H](O)CC[C@]4(C)[C@H]3CC[C@]12C` [Example 252, (R)-1-(4-(difluoromethoxy)piperidin-1-yl)-4-((3S,8S,9S,10R,13R,14S,17R)-3-hydroxy-10,13-dimethyl-2,3,4,7,8,9,10,11,12,13,14,15,16,17-tetradecahydro-1H-cyclopenta[a]phenanthren-17-yl)pentan-1-one], the EC50 was more than 10 µM.

With `CC(=O)N1CCN(C(=O)CC[C@@H](C)[C@H]2CC[C@H]3[C@@H]4CC=C5C[C@@H](O)CC[C@]5(C)[C@H]4CC[C@]23C)[C@H](C)C1` [Example 275, (4R)-4-[(1R,3aS,3bS,7S,9aR,9bS,11aR)-7-hydroxy-9a,11a-dimethyl-1H,2H,3H,3aH,3bH,4H,6H,7H,8H,9H,9aH,9bH,10H,11H,11aH-cyclopenta[a]phenanthren-1-yl]-1-[(2R)-4-acetyl-2-methylpiperazin-1-yl]pentan-1-one], the EC50 is more than 10 µM. The result for `CC(=O)N1CCN(C(=O)CC[C@@H](C)[C@H]2CC[C@H]3[C@@H]4CC=C5C[C@@H](O)CC[C@]5(C)[C@H]4CC[C@]23C)[C@@H](C)C1` [Example 276, (4R)-4-[(1R,3aS,3bS,7S,9aR,9bS,11aR)-7-hydroxy-9a,11a-dimethyl-1H,2H,3H,3aH,3bH,4H,6H,7H,8H,9H,9aH,9bH,10H,11H,11aH-cyclopenta[a]phenanthren-1-yl]-1-[(2S)-4-acetyl-2-methylpiperazin-1-yl]pentan-1-one] reads more than 10 µM; that for `CC(=O)N1CCN(C(=O)CC[C@@H](C)[C@H]2CC[C@H]3[C@@H]4CC=C5C[C@@H](O)CC[C@]5(C)[C@H]4CC[C@]23C)C[C@@H]1C` [Example 277, (R)-1-((S)-4-acetyl-3-methylpiperazin-1-yl)-4-((3S,8S,9S,10R,13R,14S,17R)-3-hydroxy-10,13-dimethyl-2,3,4,7,8,9,10,11,12,13,14,15,16,17-tetradecahydro-1H-cyclopenta[a]phenanthren-17-yl)pentan-1-one], more than 10 µM.

For the compound `CC(=O)N1CCN(C(=O)CC[C@@H](C)[C@H]2CC[C@H]3[C@@H]4CC=C5C[C@@H](O)CC[C@]5(C)[C@H]4CC[C@]23C)C[C@H]1C` [Example 278, (R)-1-((R)-4-acetyl-3-methylpiperazin-1-yl)-4-((3S,8S,9S,10R,13R,14S,17R)-3-hydroxy-10,13-dimethyl-2,3,4,7,8,9,10,11,12,13,14,15,16,17-tetradecahydro-1H-cyclopenta[a]phenanthren-17-yl)pentan-1-one], the EC50 is more than 10 µM. The value for `C[C@H](CCC(=O)N1CCN(C(=O)OCCO)CC1)[C@H]1CC[C@H]2[C@@H]3CC=C4C[C@@H](O)CC[C@]4(C)[C@H]3CC[C@]12C` [Example 281, 2-hydroxyethyl 4-[(4R)-4-[(1R,3aS,3bS,7S,9aR,9bS,11aR)-7-hydroxy-9a,11a-dimethyl-1H,2H,3H,3aH,3bH,4H,6H,7H,8H,9H,9aH,9bH,10H,11H,11aH-cyclopenta[a]phenanthren-1-yl]pentanoyl]piperazine-1-carboxyla] was more than 10 µM.
